Test results as given in paper PMC6839174, “Targeting the Formyl Peptide Receptor type 1 to prevent the adhesion of ovarian cancer cells onto mesothelium and subsequent invasion” (Journal of Experimental & Clinical Cancer Research : CR, 2019).
Non-standard residues stand in square brackets, D forms with d. Aib = CC(C)(N)C(=O)O

Key:
[1] = ref [36]; cited from earlier work
Source text: On the other hand, despite a variety of natural and synthetic compounds that interfere with FPR1-dependent pathways antagonizing FPR1functions have been described, the majority had off-target effects, discouraging their clinical development.

A2780 cells [2] = assay: HPMC invasion by A2780 cells monitored in real time; format: cell-based, Human; conditions: 10 nM RI-3; xCELLigence; quadruplicate representative of 2 replicates
Experimental: (§1) HPMCs (5 × 10^3 cells/well) suspended in growth medium, were seeded in E-16-well plates and allow to adhere for 18–20 h until they form a confluent monolayer, prior to seeding EOC cells (2 × 10^4 cells/well) in growth medium plus/minus 10 nM RI-3. When HPMCs are challenged with invading cells, there is a drop in electrical resistance within 2–4 h which is monitored in real-time as the Cell Index changes due to the rupture of mesothelium. The experiments were performed three times in quadruplicate.
Supplementary file 13046_2019_1465_MOESM1_ESM.zip: Additional file 1: Figure S1. Adhesion and mesothelial invasion properties of uPAR and FPR1 lacking EOC cells. a. […] analysis of human ovarian carcinoma A2780 cells with (CD87)-APC-conjugated anti-uPAR or PE-conjugated FPR1 antibodies. b. Cell adhesion of A2780 cells on 1% BSA (CTRL), Vn-, Fn-Lm or Coll-coated plates, in the presence or the absence of 10 nM RI-3. The number of adherent cells was expressed as a percentage of CTRL. Data are the means ± SD of three independent experiment. c. Mesothelium invasion by A2780 cells. […] Then, A2780 cells suspended in growth medium plus/minus 10 nM RI-3 were seeded onto the mesothelial cell monolayer and invasion of mesothelium by A2780 cells was monitored in real-time as changes in Cell Index due to breaking of the monolayer integrity. […]

SKOV-3 cells [3] = assay: HPMC invasion by SKOV-3 cells monitored in real time; format: cell-based, Human; conditions: 10 nM RI-3; xCELLigence cell index, slopes 20–24 h; quadruplicate representative of 3 replicates
Experimental: as §1

SKOV-3 cells [4] = assay: Adhesion of SKOV-3 cells onto extracellular matrix proteins (24-well plates, cell counting); format: cell-based, Human
Experimental: (§2) Adhesion assays were performed using 24 multi-well plates coated with 1% BSA, 5 μg mL vitronectin (Vn), 5 μg mL fibronectin (Fn), 5 μg mL laminin (Lm) or 15 μg mL collagen (Coll) diluted in serum-free medium. Sub-confluent cells were harvested by a mild trypsinization, incubated with 10% FBS / DMEM for 1 h at 37 °C, 5% CO2, acid treated with a buffer containing 50 mM glycin-HC1, 0.1 M NaCl, pH 3 for 4 min at 22 °C, to remove receptor-bound ligands, and counted. Viable cells (2 × 10^5 cells per well) were plated in serum-free medium, in the absence or presence of 2 μg/mL R3 mAb recognizing the DI uPAR domain, 2 μg/mL399 anti-uPAR (American Diagnostica), 2 μg/mL anti-uPAR84-95 (PRIMM), 2 μg/mL anti-α-tubulin (Cell Signaling) Abs or 10 nM RI-3, and allowed to adhere for 2 h at 37 °C, 5% CO2. […] At the end of the assay, adherent cells were removed with 0.05% trypsin, and counted. The number of adherent cells was expressed as a percentage of the basal cell adhesion (CTRL). The experiments were performed at least three times in triplicate.

A2780 cells [5] = assay: Adhesion of A2780 cells onto extracellular matrix proteins; format: cell-based, Human; conditions: A2780 cells lacking uPAR and FPR1, 10 nM RI-3; BSA, Vn, Fn, Lm or Coll; three independent experiments
Experimental: as §2, with “The experiments were performed at least three times in triplicate.” left out
Supplementary file 13046_2019_1465_MOESM1_ESM.zip: Additional file 1: Figure S1. […] The number of adherent cells was expressed as a percentage of CTRL. […] Then, A2780 cells suspended in growth medium plus/minus 10 nM RI-3 were seeded onto the mesothelial cell monolayer and invasion of mesothelium by A2780 cells was monitored in real-time as changes in Cell Index due to breaking of the monolayer integrity. […]

[6] = design: method as in PMID 28465589; conditions: mice, ref [36], cited from earlier work
primary EOC cells = assay: Adhesion of primary EOC cells onto matrix proteins monitored in real time (xCELLigence); format: cell-based, human
Experimental: This assay was performed using E-16-well plates and the xCELLigence Real Time Cell Analysis technology. Bottom wells were coated with serum-free medium, 5 μg mL Vn, 5 μg mL Fn, 5 μg mL Lm or 15 μg mL Coll diluted in serum-free medium prior to seeding cells (1 × 10^4 cells/well) suspended in serum-free medium. Cells that adhere to the bottom of plates cause impedance changes which are proportional to the number of cells. The impedance value of each well was automatically monitored in real-time for at least 2 h and expressed as a cell index value. The experiments were performed three times in quadruplicate.
Fig. 6 RI-3 prevents EOC cell adhesion and subsequent invasion of mesothelium. a Adhesion of primary EOC cells on E-plates coated with 1% BSA (CTRL), 5 μg mL Vn, 5 μg mL Fn, 5 μg mL Lm or 15 μg mL Coll, with/without 10 nM RI-3, monitored in real time for 5 h by the xCELLigence system. Data represent mean ± SD from a quadruplicate experiment representative of 3 replicates. b-c Adhesion of EOC cells onto Vn in the absence or presence of 10 nM RI-3, monitored in real time for 3 h by the xCELLigence system. […] At the indicated times, cell associated fluorescence was assessed by a fluorescence plate reader. […] Cells invasion was monitored in real-time as changes in Cell Index due to breaking of the monolayer integrity (e). […]

## Ac-[dY][dR][Aib][dR]-NH2 [RI-3, retro-inverso peptide, uPAR/FPR1 antagonist]
[1]
  cell proliferation: does not affect cell proliferation
A2780 cells [2]
  A2780 cell crossing of mesothelium: ineffective
SKOV-3 cells [3]
  capability of SKOV-3 cells to disrupt mesothelial cell monolayer: abrogated the capability of SKOV-3 cells to disrupt mesothelial cell monolayer
SKOV-3 cells [4]; SKOV-3, 10 nM RI-3, 2 h, BSA (basal), collagen, fibronectin, laminin, three independent experiments
  basal cell adhesion and adhesion to Coll-, Fn- and Lm-coated plates: neither affected basal cell adhesion, nor cell adhesion to Coll- Fn- and Lm-coated plates
SKOV-3 cells [4]; SKOV-3, 10 nM RI-3, Fig. 2d (2 h, cell counting) and Fig. 2e (real time 2 h)
  extent of cell adhesion onto Vn with RI-3: dramatically reduced the extent of cell adhesion onto Vn
A2780 cells [5]
  A2780 cell adhesion: ineffective
[6]; versus vehicle-treated animals
  body weight: no change of body weight
[6]
  tolerability in vivo: well tolerated in vivo
  visible side-effects: no visible side-effects
Primary EOC cells; 10 nM RI-3, 5 μg mL Vn, real time, slopes 10–120 min, quadruplicate representative of 3 replicates
  reduction of primary EOC cell adhesion onto Vn: 55%
Primary EOC cells; 10 nM RI-3, Vn vs Fn, Coll, Lm, real time 5 h
  matrix selectivity of adhesion reduction, primary EOC cells: exclusively reduced cell adhesion onto Vn
